Measurements: patent US20150093333A1, “COMPOSITIONS, METHODS AND USES FOR PEPTIDES IN DIAGNOSIS, PROGRESSION AND TREATMENT OF CANCERS” (THE REGENTS OF THE UNIVERSITY OF COLORADO, body corporate, priority 2003, published 2015)

Assays:
[1] = system: isolated microvesicles; experiment: Fluorescence enhancement with isolated rat microvesicles; format: binding
Experimental: In another exemplary method, having established the simultaneous curvature- and PS-sensing by MARCKS-ED in synthetic liposomes, MARCKS-ED was tested on detection of highly curved, PS-enriched particles in a complex biological system. Microvesicles (ø=0.03-1 μm) are highly curved lipid vesicles that shed into body fluids (e.g., blood, urine, ascitic fluid). These vesicles are released by cancerous cells in which lipid asymmetry is de-regulated, contributing to externalization and enrichment of PS on their outer leaflet. The microvesicle detecting ability of MARCKS-ED was investigated using plasma samples from a stressed rat model. […]
Microvesicles in these samples were characterized by TEM imaging, and ELISA of detection of the signature CD63 protein and the membrane transport protein Rab5b exposed on the surface. Particles expressing both proteins were captured by antibodies and quantified in a colorimetric endpoint assay.
These isolated microvesicles were measured by nanoparticle tracking analysis (NTA) to confirm their average size (ø=56 nm). Tracking analyses were performed using the NanoSight LM10-HS instrument (Amesbury, UK) equipped with a 532 nm laser and observed at scatter and fluorescence modes (filter=550 nm). […]
Monitored at λex=295 nm, Annexin-V (0.32 μM) was treated with CaCl2 (3 mM) in TES buffer and with 500 μM lipid vesicles of varying PS content. […]

[2] = system: synthetic lipid vesicles; experiment: Fluorescence enhancement assay of NBD-labeled MARCKS peptides with synthetic vesicles; format: binding
Source text: In another exemplary method, lipid vesicles were employed to the curvature-sensing behavior of the MARCKS derived peptides with various sizes and lipid components. The membrane curvature is defined as the reciprocal of the diameter of a particular particle, e.g., smaller-sized vesicles present highly curved membrane bilayers. A series of lipid models were made to represent various lipid components that closely resemble the lipid composition of biological membranes. […] Dynamic light scattering (DLS) and negative-stain transmission electron microscopy (TEM) were performed to confirm the different vesicle sizes following the pressure-controlled extrusion process through different membrane diameter pores. Commercial polystyrene beads were used as the calibration standard for the vesicle size validation experiments. Furthermore, a time-course experiment was carried out to confirm the stability of the vesicles up to 16 hours. Three different membrane diameters were extruded for the following biophysical characterizations: 30 nm, 100 nm, 400 nm, reflecting different membrane curvatures.
Next, a fluorescence enhancement assay was conducted to further quantify the curvature- and PS-sensing behavior of MARCKS-ED. Appropriate controls were performed to confirm that the fluorophore alone had no effect on the observed fluorescence enhancement (data not shown). FIG. 4 represents histogram data of fluorescence enhancement assay with and fluorescence anisotropy titration of the NBD labeled MARCKS derived peptides. Upon binding to lipid vesicles, the fluorescence intensity of NBD-MARCKS-ED increased due to vesicle binding and changes in the hydrophobic environment surrounding the fluorophore, concurring with a slight blue shift of the maximum emission wavelength. The emission spectra of all NBD-labeled peptides were recorded using a Fluorolog-3 fluorometer with λex=480 nm. The peptides and protein were tested at a concentration of 500 nM in PBS (pH 7.40) treated with 500 μM synthetic vesicles of different vesicles sizes. […] The positive control C2AB (200 nM) from the rat Synaptotagmin-1 (Syn-1) protein (G374, residues 96-421) was treated with CaCl2 (2.5 mM) and observed with λex of 275 nm and emission range of 300-450 nm. The untreated peptide and Ca^2+-C2AB samples were corrected by the PBS (pH=7.40) blank solution for the peptides and PBS with Ca^2+ for the Ca^2+-C2AB sample. All samples were prepared and incubated overnight in 4° C.
FIG. 4A illustrates a histogram plot of fluorescence intensity of MARCKS-ED treated with lipid vesicles of various sizes. […] Last, the fluorescence intensity differences were less significant with vesicles containing no PS. […]

[3] = system: PS-exposing cell membranes; experiment: Fluorescence staining of PS-exposing membranes in dissected gonads of C. elegans; format: in vivo; conditions: wild type (N2), tat-1(tm3117) and ced-7(n2094) animals
Experimental: Fluorescence staining assays were carried out in an acceptible C. elegans model with PS-exposing cell membranes. […] NBD-MARCKS-ED was used to stain the dissected gonads of wild type (N2) animals, tat-1(tm3117) mutant animals, and engulfment-deficient ced-7 (n2094) mutant animals, respectively. 36 hour old hermaphrodite adult animals were collected and gently dissected by cutting their heads in a depression slide with a gonad dissection buffer (previously presented) to expose the gonads. The exposed gonads were then washed once in the dissection buffer and transferred to a dissection buffer containing 4 μM of Hoechst 33342 and 20 μM of NBD labeled MARCKS-ED peptide, 20 μM NBD-MARCKSmut1 peptide, or 10 nM Alexa Fluor 488-conjugated Annexin-V for 45 minutes. Gonads were washed one more time in the dissection buffer, placed on a 5% agarose pad, and visualized using a Nomarski microscope equipped with an epifluorescence detector.
FIGS. 6A-6C illustrate exemplary staining results using MARCKS derived peptides and Annexin V. PS is typically kept in the inner leaflet of plasma membranes in living cells and is exposed on the cell surface only under certain cellular events, i.e., when cells undergo apoptosis or lose the ability to maintain the PS asymmetry with a tat-1 gene mutation. FIG. 6A represents the staining results with labeled MARCKS-ED in wild type and mutants C. elegans. […] FIG. 6B represents the staining results with labeled MARCKSmut1 in wild type and mutants C. elegans. […] In FIGS. 6A-6B, nuclei were stained with Hoechst 33342. Annexin-V, a known PS-sensor, was also used to stain the gonads of tat-1 and ced-7 mutant C. elegans. […] Hoechst33342 (4 μM), FITC-AnnexinV (10 nM) and Nomarski images are shown. […] Scale bar=10 μm.

reversal of binding by CaM ([2]; addition of CaM): could be partially reversed
Sequence: KKKKKRFSFKKSFKLSGFSFKKNKK [MARCKS-ED]
binding to isolated microvesicles (fluorescence enhancement) [1]: demonstrated to bind to these biological particles
fluorescence intensity increase, 30 nm vs 400 nm vesicles ([2]; peptide 500 nM, 500 μM vesicles containing PS): approximately 1.5 fold
staining of PS-exposed membranes [3]: recognizes PS exposed on the surface of all germ cells in the tat-1 (tm3117) mutant and un-engulfed apoptotic germ cell corpses in the ced-7(n2094) mutant
